# Assay results taken from PMC13199644, “Optimized Quantitative Bacterial Two-Hybrid (qB2H) for Protein–Protein Interaction Assessment” (Computational and Structural Biotechnology Journal, 2026).
# No end group written: not given here.
# How the values were obtained:
# [1] = system: ASF1BN; experiment: qB2H v4 binder selection, long-term turbidostat (Chi.Bio), kanamycin 209 μg/ml, NGS enrichment/frequency; type: cell-based; details: kanamycin 209 μg/ml (120% MIC50), TF/T0 frequency ratio
# Method: (§1) Design and selection of binders
# (§2) An AI pipeline integrating RFdiffusion, ProteinMPNN, and AlphaFold2 (detailed in Supplementary Methods) was implemented to design N-terminal extensions of ip4_mutG, a weak ASF1 binder (Kd ~10 μM). Briefly, N-terminal extensions of 11 to 16 amino acids were fused to linkers (GSEAK, GSEK, or GSK) and appended to the ip4_mutG coding sequence. Rational designs and controls (flexible N-terminal extensions) were incorporated into the library, ordered as oligonucleotide pools (oPools, IDT), and cloned into the v4 series plasmid for transformation into SB39 cells. Library selection was performed in 2 experimental setups: (a) short batch selection and (b) prolonged continuous selection in a turbidostat (Chi.Bio [61]).
# (§3) In the batch selection, induced cultures diluted to OD600 = 0.05 were exposed to kanamycin concentrations ranging from 0 to 348 μg/ml. […] Cultures were maintained at OD600 0.4 for 21 or 29 h, followed by an additional 3-h growth period after sample collection, totaling 24 and 32 h.
# (§4) Plasmids extracted from samples taken before (T0) and after selection (TF) were sequenced by NGS (Illumina), and reads corresponding to expected sequences were quantified to assess relative frequencies and enrichment.
# Long selection runs (continuous cultures under stable cell density—turbidostat)
# Culture conditions before kanamycin-based selection were identical to those in “short selection runs in batches” including T0 sample preparation. However, the turbidostat function of Chi.Bio system^11,12 was used to implement a continuous culture over extended selection periods. […] Samples (10 mL) were recovered at 21 and 29 h after selection initiation and cultured for an additional 3 hours (final OD ~ 2.5) totalizing, respectively, 24 (TF_24h) or 32 hours (TF_32h) selection.
# (§5) NGS sample preparation and analysis
# (§6) NGS samples were prepared by PCR using primer OR2895 with one of primers from OR2890– OR2894: 98 °C for 1 min; 26 cycles of (98 °C for 15 s.; 65 °C for 15 s.; 72 °C for 1 min) and 72 °C for 3 min.
# (§7) FASTQ-formatted assembled paired-end reads corresponding to the expected sequences were counted and their frequencies calculated. Enrichment of each variant was obtained by the TF/T0 frequency ratio.
# [2] = molecular target: T1, SMT3 (Saccharomyces cerevisiae, UniProt Q12306); experiment: qB2H v1 fluorescence, SMT3 (SUMO) vs SUMO-interacting motifs; type: cell-based, Escherichia coli; details: BL21(DE3), qB2H v1, cI-SMT3 2-97, IPTG(20µM)
# T1 construct: SMT3; UNIPROT: Q12306; 2-97; Saccharomyces cerevisiae; expressed in transfected cells; host or cells: E. coli BL21(DE3) transformed with VN594 plus a pBRα rpoA-fusion plasmid
# Method: Precultures of untransformed (for intrinsic fluorescence evaluation) and transformed SB39 cells were diluted (3 μl into 300 μl of fresh medium) in 2-ml microtubes and grown in ThermoMixer C (Eppendorf; 37 °C at 900 rpm) for 2 h. Cultures with an OD600 of approximately 0.5 were then mixed with 100 μl of the same medium containing 4× inducer concentration. […] The induced cultures were grown overnight at 18 °C, diluted (1 μl) in freshly filtered (0.22 μm) phosphate-buffered saline buffer (1 ml per OD unit), and analyzed using guava easyCyte HT (488-nm blue laser). The gating for event analysis was set to minimize background noise (fewer than 100 gated events per 10 μl of sterile phosphate-buffered saline). Ten thousand events were collected per culture, and the MFI was recorded. […] Their MFI were used to normalize those of other conditions (x) using the following equation [Eq. (1)]: Normalized MFIx=MFIx−MFIlow/MFIhigh−MFIlow × 100 (1)
# MFI(x) represents the MFI of a given condition or culture. […] Each experiment was conducted in 3 independent assays performed on different days. Figures were generated using Python notebooks in conjunction with Matplotlib.
# Interactions involving distinct protein domains and folding variants were assessed using qB2H systems v1, v2, and v3. […] The x-axis labels indicate the qB2H version and the interacting partners, formatted as follows: (qB2H version) Partner_A–Partner_B (inducers). Anhydrotetracycline (aTc) concentrations are reported in ng/mL; IPTG concentrations are given in µM. All experimental conditions, acronyms, and constructs are defined in the Methods section.
# [3] = system: ASF1BN; experiment: qB2H v4 binder selection, short-term batch, kanamycin, NGS enrichment/frequency; type: cell-based, bacterial; details: 4 to 5 h, SB39 v4, TF/T0 frequency ratio
# Method: as §1, §2, §3, §4
# Short selection runs (batches)
# Glycerol stocks of mixed libraries were inoculated at approximately 18:00 in fresh media and grown overnight at 30 °C, to slow growth kinetics and reduce saturation-related stress (by decreasing the time spent in stationary phase). The grown cultures were diluted to OD600 = 0.05 in 150 mL of LB supplemented with 17 µg/mL chloramphenicol, 200 µM IPTG, 200 ng/mL aTc, and incubated (200 rpm, 37 °C) for 2 h (OD600 ~ 0.5). […] Assuming that sufficiently strong selection pressure can impact population growth over a short term (few hours), only cultures with OD at least 0.5 absorbance units lower than the OD of the culture without kanamycin after 4.5–5 h were retained for NGS analysis (TF-[ X µg/mL kan] samples).
# as §5, §6, §7
# [4] = system: TNFa; experiment: qB2H v3 fluorescence, TNFa vs VHH/ScFv; type: cell-based, Homo sapiens; details: SB39, v3, cI-TNFa 77-233, aTc(200ng/mL) + IPTG(1000µM)
# Method: (§8) Precultures of untransformed (for intrinsic fluorescence evaluation) and transformed SB39 cells were diluted (3 μl into 300 μl of fresh medium) in 2-ml microtubes and grown in ThermoMixer C (Eppendorf; 37 °C at 900 rpm) for 2 h. Cultures with an OD600 of approximately 0.5 were then mixed with 100 μl of the same medium containing 4× inducer concentration. Final inducer concentrations, chosen on the basis of maximal signal output, were 20 μM IPTG for v1 or v2 and 200 μM IPTG plus […] for v3 series. The induced cultures were grown overnight at 18 °C, diluted (1 μl) in freshly filtered (0.22 μm) phosphate-buffered saline buffer (1 ml per OD unit), and analyzed using guava easyCyte HT (488-nm blue laser). The gating for event analysis was set to minimize background noise (fewer than 100 gated events per 10 μl of sterile phosphate-buffered saline). Ten thousand events were collected per culture, and the MFI was recorded. […]
# (§9) MFI(x) represents the MFI of a given condition or culture. MFI(low) corresponds to the fluorescence produced by SB39 cells cotransformed with VN519 and VN550, indicating no detectable interaction (Kd > 100,000 nM). […]
# Interactions involving distinct protein domains and folding variants were assessed using qB2H systems v1, v2, and v3. […]
# [5] = system: ASF1BN; experiment: qB2H fluorescent reporter (eGFP MFI, flow cytometry or colonies), ASF1BN, v1 to v3; type: cell-based, human; details: relative to ip3_mut3A and ip1
# Method: qB2H experiments using a fluorescent reporter
# as §8, §9
# [6] = ChiBio_T24_Kan209, turbidostat 24 h
# [7] = ChiBio_T32_Kan209, turbidostat 32 h
# [8] = Batch_Kan261, kanamycin 261 μg/ml (150% MIC50 of ASF1–ip3)
# [9] = Batch_Kan348, kanamycin 348 μg/ml (200% MIC50 of ASF1–ip3)
# T1 sequence (Q12306 2-97): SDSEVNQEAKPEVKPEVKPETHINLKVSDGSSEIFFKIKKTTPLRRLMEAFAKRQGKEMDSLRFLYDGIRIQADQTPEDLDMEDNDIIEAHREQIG
substance,measurement,setting,value
"AAEEAARFAALLAALP-GSK-ip4_mutG [T32_Kan[209]_top2, AI design n°218 with GSK linker]",enrichment,[1]; [6],7.72E+01
same,enrichment,[1]; [7],8.39E+01
"CDC48 72-91: CDC48 P25694 region 72-91, SUMO-interacting motif peptide (KKRKDTVLIVLIDDELEDGA; UniProt P25694 72-91, looked up, fragment)",Norm. MFI,[2],46.16%
"CDC48 431-450: CDC48 P25694 region 431-450, SUMO-interacting motif peptide (QQIREKMDLIDLDEDEIDAE; UniProt P25694 431-450, looked up, fragment)",Norm. MFI,[2],9.91%
KPEAAASAAAEQAAFAALLAALPGSKWARLARRTAGAGGVTLNGAG [AI design n°217 with GSK linker],enrichment,[3]; [8],3.15E+00
KPEAAASAAAEQAHFAALLAKLPGSKWARLARRTAGAGGVTLNGAG [AI design n°225 with GSK linker],enrichment,[3]; [9],4.18E+00
KPEAAASAAEEQAAFDALLAALPGSKWARLARRTAGAGGVTLNGAG [AI design n°261 with GSK linker; third of turbidostat T32_Kan[209]],enrichment,[1]; [6],6.25E+00
same,enrichment,[1]; [7],1.11E+01
KPEAAASAEAEAARFAALLAALPGSKWARLARRTAGAGGVTLNGAG [AI design n°220 with GSK linker],enrichment,[1]; [6],4.84E-02
same,enrichment,[1]; [7],5.25E-02
KPEAAASAEAERWAQALAALPGSKWARLARRTAGAGGVTLNGAG [AI design n°32 with GSK linker],enrichment,[3]; [8],4.25E+00
KPEAAASAEEEEAAFAALLAALPGSKWARLARRTAGAGGVTLNGAG [AI design n°233 with GSK linker],enrichment,[1]; [6],1.42E+00
same,enrichment,[1]; [7],2.04E+00
KPEAAASAEEEQARFAALLAALPGSKWARLARRTAGAGGVTLNGAG [AI design n°250 with GSK linker],enrichment,[3]; [9],4.27E+00
KPEAAASDAAARFAAALAALPGSKWARLARRTAGAGGVTLNGAG [AI design n°37 with GSK linker],enrichment,[3]; [8],4.90E+00
KPEAAASMSSHQLWKQWGGGSEKWARLARRTAGAGGVTLNGAG [Rational design n°84 with GSEK linker],enrichment,[3]; [8],2.46E+00
KPEAAASSAAERFAAALAALPGSKWARLARRTAGAGGVTLNGAG [AI design n°47 with GSK linker; third of batch Kan[348]],enrichment,[3]; [9],4.66E+00
ScFv (D2E7): Adalimumab ScFV; WIPO: WO2011084714A2,Norm. MFI,[4],8.76%
"Srs2_SIM: SUMO-interacting motif, P12954 1164-1174, Saccharomyces cerevisiae (KLNNGEIIVID; UniProt P12954 1164-1174, looked up, fragment)",Norm. MFI,[2],62.95%
WARLARRTAGAGGVTLNGAG [ip4_mutG],qB2H signal,[5],between ip3_mut3A and ip1
